From patent US11306078B2, “Piperidine CXCR7 receptor modulators” (IDORSIA PHARMACEUTICALS LTD., priority 2016, dated 2022)

What follows are compounds tested against human chemokine receptor CXCR7 (Homo sapiens (Human), UniProt P25106) (assay: Tango CXCR7-bla U2OS beta-arrestin recruitment assay (beta-lactamase reporter, FRET), antagonism of CXCL12/SDF1-α). Details: antagonistic effect on CXCR7; Tango CXCR7-bla U2OS cells, CXCL12/SDF1-α at its EC80.
Assay type: cell-based
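Further: compounds preincubated 15 min before CXCL12 addition, then 22 h at 37 °C, FRET emission ratio read with CCF4-AM substrate after 2 h.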

Sequence of human chemokine receptor CXCR7 (P25106 whole entry): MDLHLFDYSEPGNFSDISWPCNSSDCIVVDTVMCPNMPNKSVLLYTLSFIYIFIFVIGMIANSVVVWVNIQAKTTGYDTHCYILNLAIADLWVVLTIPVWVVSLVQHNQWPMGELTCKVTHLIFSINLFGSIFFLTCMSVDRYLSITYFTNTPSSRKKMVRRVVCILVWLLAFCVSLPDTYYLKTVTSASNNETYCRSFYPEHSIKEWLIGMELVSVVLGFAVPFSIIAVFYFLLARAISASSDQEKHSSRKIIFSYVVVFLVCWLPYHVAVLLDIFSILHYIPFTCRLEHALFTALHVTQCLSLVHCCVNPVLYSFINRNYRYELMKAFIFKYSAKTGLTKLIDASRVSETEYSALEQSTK

| Structure (SMILES) | IC50 [nM] |
| --- | --- |
| C[C@@H](NC(=O)[C@H]1CN(CC2CC2)CC[C@@H]1NC(=O)c1cc(-c2ccc(F)cc2F)on1)c1cccc(Br)c1 [Example 4.075] | 2 |
| O=C(N[C@H]1CCN(CC2CC2)C[C@@H]1C(=O)NC1(c2ccccc2O)CC1)c1cc(-c2ccc(F)cc2F)on1 [Example 4.076] | 97 |
| O=C(N[C@H]1CCN(CC2CC2)C[C@@H]1C(=O)NC1(c2nccc[n+]2[O-])CC1)c1cc(-c2ccc(F)cc2F)on1 [Example 4.077] | 4 |
| O=C(NC1CCN(CC2CC2)CC1C(=O)N1CCCC1c1ncccn1)c1cc(-c2ccc(F)cc2F)on1 (stereo not shown) [Example 4.078] | 64 |
| O=C(N[C@H]1CCN(CC2CC2)C[C@@H]1C(=O)N1CCCC1c1ncccn1)c1cc(-c2ccc(F)cc2F)on1 (stereo partly shown) [Example 4.078b] | 15 |
| O=C(N[C@H]1CCN(CC2CC2)C[C@@H]1C(=O)N1CC[C@@H]1c1ncccn1)c1cc(-c2ccc(F)cc2F)on1 [Example 4.079a] | 186 |
| O=C(N[C@@H]1CCN(CC2CC2)C[C@H]1C(=O)N1CC[C@@H]1c1ncccn1)c1cc(-c2ccc(F)cc2F)on1 [Example 4.079b] | 18 |
| CC(NC(=O)[C@H]1CN(CC2CC2)CC[C@@H]1NC(=O)c1cc(-c2ccc(F)cc2F)on1)c1ncccn1 (stereo partly shown) [Example 4.080a] | 851 |
| CC(NC(=O)[C@@H]1CN(CC2CC2)CC[C@H]1NC(=O)c1cc(-c2ccc(F)cc2F)on1)c1ncccn1 (stereo partly shown) [Example 4.080b] | 15 |
| O=C(N[C@H]1CCN(CC2CC2)C[C@@H]1C(=O)NC1(c2cncnc2)CC1)c1cc(-c2ccc(F)cc2F)on1 [Example 4.081] | 426 |
| O=C(N[C@H]1CCN(C2CCC2)C[C@@H]1C(=O)NC1(c2ncccc2F)CC1)c1cc(-c2ccc(F)cc2F)on1 [Example 4.082] | 20 |
| CC(C)(NC(=O)[C@H]1CN(C2CCC2)CC[C@@H]1NC(=O)c1cc(-c2ccc(F)cc2F)on1)c1ncccn1 [Example 4.083] | 11 |
| C[C@@H](NC(=O)[C@H]1CN(C2CCC2)CC[C@@H]1NC(=O)c1cc(-c2ccc(F)cc2F)on1)c1ncccn1 [Example 4.084] | 232 |
| C[C@@H](NC(=O)[C@H]1CN(C2CCC2)CC[C@@H]1NC(=O)c1cc(-c2ccc(F)cc2F)on1)c1ncccn1 [Example 4.084b] | 77 |
| O=C(N[C@@H]1CCN(C2CCC2)C[C@H]1C(=O)NC1(Cc2ccccc2)COC1)c1cc(-c2ccc(F)cc2F)on1 [Example 4.085] | 61 |
| Cc1cccnc1C(C)(C)CNC(=O)[C@@H]1CN(C2CCC2)CC[C@H]1NC(=O)c1cc(-c2ccc(F)cc2F)on1 [Example 4.086] | 472 |
| CC(C)(CNC(=O)[C@@H]1CN(C2CCC2)CC[C@H]1NC(=O)c1cc(-c2ccc(F)cc2F)on1)c1ccccn1 [Example 4.087] | 342 |

| Structure (SMILES) | IC50 [nM] |
| --- | --- |
| Cc1ccccc1C1(NC(=O)[C@H]2CN(C3CCC3)CC[C@@H]2NC(=O)c2cc(-c3ccc(F)cc3F)on2)CC1 [Example 4.088] | 138 |
| O=C(N[C@@H]1CCN(C2CCC2)C[C@H]1C(=O)NC1(c2ccc(F)cc2)COC1)c1cc(-c2ccc(F)cc2F)on1 [Example 4.089] | 299 |
| CC(C)(CNC(=O)[C@@H]1CN(C2CCC2)CC[C@H]1NC(=O)c1cc(-c2ccc(F)cc2F)on1)c1ccccc1Cl [Example 4.091] | 134 |
| O=C(N[C@@H]1CCN(C2CCC2)C[C@H]1C(=O)NCC1(c2ccc(Cl)cc2)CC1)c1cc(-c2ccc(F)cc2F)on1 [Example 4.092] | 126 |
| O=C(N[C@@H]1CCN(C2CCC2)C[C@H]1C(=O)NCC1(c2ccccn2)CC1)c1cc(-c2ccc(F)cc2F)on1 [Example 4.093] | 165 |
| O=C(N[C@@H]1CCN(C2CCC2)C[C@H]1C(=O)NC1(c2cccc(Cl)c2)COC1)c1cc(-c2ccc(F)cc2F)on1 [Example 4.094] | 201 |
| CCN1CC[C@H](NC(=O)c2cc(-c3ccc(F)cc3F)on2)[C@@H](C(=O)N[C@H](C)c2cccc(C)n2)C1 [Example 4.095] | 57 |
| CCN1CC[C@H](NC(=O)c2cc(-c3ccc(F)cc3F)on2)[C@@H](C(=O)NC(C)(C)c2ncccn2)C1 [Example 4.096] | 33 |
| O=C(N[C@H]1CCN(C2CCC2)C[C@@H]1C(=O)NC1(c2cccc(Cl)c2)COC1)c1cc(-c2ccc(F)cc2F)on1 [Example 4.097] | 80 |
| C[C@@H](NC(=O)[C@H]1CN(C2CCC2)CC[C@@H]1NC(=O)c1cc(-c2ccc(F)cc2F)on1)c1ncccc1F [Example 4.098] | 18 |
| C[C@@H](NC(=O)[C@H]1CN(C2CCC2)CC[C@@H]1NC(=O)c1cc(-c2ccc(F)cc2F)on1)c1ncccc1F [Example 4.098a] | 12 |
| O=C(N[C@@H]1CCN(CC2CC2)C[C@H]1C(=O)NCc1ncccn1)c1cc(-c2ccc(F)cc2F)on1 [Example 4.099] | 852 |
| CC(C)(C)N1CC[C@@H](NC(=O)c2cc(-c3ccc(F)cc3F)on2)[C@H](C(=O)NC2(c3ncccn3)CC2)C1 [Example 4.101] | 71 |
| CC(C)(C)N1CC[C@@H](NC(=O)c2cc(-c3ccc(F)cc3F)on2)[C@H](C(=O)NC2(c3ncccn3)CC2)C1 [Example 4.101a] | 18 |
| CC(C)(C)N1CC[C@H](NC(=O)c2cc(-c3ccc(F)cc3F)on2)[C@@H](C(=O)NC2(c3ncccn3)CC2)C1 [Example 4.101b] | 712 |
| CC(C)(NC(=O)[C@H]1CN(CC2CC2)CC[C@@H]1NC(=O)c1cc(-c2ccc(F)cc2F)on1)c1ncccn1 [Example 4.102] | 1 |

Other lines, results leading:

| IC50 [nM] | Structure (SMILES) |
| --- | --- |
| 32 | O=C(N[C@H]1CCN(CC2CC2)C[C@@H]1C(=O)NC1(c2ncccn2)CC1)c1noc(-c2ccc(F)cc2)c1F [Example 7.001, (3S,4S)-1-Cyclopropylmethyl-4-{[4-fluoro-5-(4-fluoro-phenyl)-isoxazole-3-carbonyl]-amino}-piperidine-3-carboxylic Acid (1-pyrimidin-2-yl-cyclopropyl)-amide] |
| 60 | O=C(N[C@H]1CCN(CC2CC2)C[C@@H]1C(=O)NC1(c2ncccn2)CC1)c1nc(-c2ccc(F)cc2F)co1 [Example 7.01] |
| 308 | Cc1ccccc1-c1cc(C(=O)N[C@H]2CCN(CC3CC3)C[C@@H]2C(=O)NC2(c3ncccn3)CC2)no1 [Example 7.002, (3S,4S)-1-Cyclopropylmethyl-4-[(5-o-tolyl-isoxazole-3-carbonyl)-amino]-piperidine-3-carboxylic acid (1-pyrimidin-2-yl-cyclopropyl)-amide] |
| 210 | Cc1ccc(-c2cc(C(=O)N[C@H]3CCN(CC4CC4)C[C@@H]3C(=O)NC3(c4ncccn4)CC3)no2)cc1C [Example 7.003, (3S,4S)-1-Cyclopropylmethyl-4-{[5-(3,4-dimethyl-phenyl)-isoxazole-3-carbonyl]-amino}-piperidine-3-carboxylic acid (1-pyrimidin-2-yl-cyclopropyl)-amide] |
| 64 | O=C(N[C@H]1CCN(CC2CC2)C[C@@H]1C(=O)NC1(c2ncccn2)CC1)c1cn(-c2ccc(F)cc2F)nn1 [Example 7.004, (3S,4S)-1-Cyclopropylmethyl-4-{[1-(2,4-difluoro-phenyl)-1H-[1,2,3]triazole-4-carbonyl]-amino}-piperidine-3-carboxylic acid (1-pyrimidin-2-yl-cyclopropyl)-amide] |
| 36 | Cc1ccc(-c2cc(C(=O)N[C@H]3CCN(CC4CC4)C[C@@H]3C(=O)NC3(c4ncccn4)CC3)no2)c(C)c1 [Example 7.005, (3S,4S)-1-Cyclopropylmethyl-4-{[5-(2,4-dimethyl-phenyl)-isoxazole-3-carbonyl]-amino}-piperidine-3-carboxylic acid (1-pyrimidin-2-yl-cyclopropyl)-amide] |
| 8 | O=C(N[C@H]1CCN(CC2CC2)C[C@@H]1C(=O)NC1(c2ncccn2)CC1)c1cc(-c2ccc(F)cc2F)no1 [Example 7.006, (3S,4S)-1-Cyclopropylmethyl-4-{[3-(2,4-difluoro-phenyl)-isoxazole-5-carbonyl]-amino}-piperidine-3-carboxylic acid (1-pyrimidin-2-yl-cyclopropyl)-amide] |
| 140 | O=C(N[C@H]1CCN(CC2CC2)C[C@@H]1C(=O)NC1(c2ncccn2)CC1)c1ncc(-c2ccc(F)cc2)o1 [Example 7.007, (3S,4S)-1-Cyclopropylmethyl-4-{[5-(4-fluoro-phenyl)-oxazole-2-carbonyl]-amino}-piperidine-3-carboxylic acid (1-pyrimidin-2-yl-cyclopropyl)-amide] |
| 51 | O=C(N[C@H]1CCN(CC2CC2)C[C@@H]1C(=O)NC1(c2ncccn2)CC1)c1noc(-c2ccc(F)cc2F)n1 [Example 7.008, (3S,4S)-1-Cyclopropylmethyl-4-{[5-(2,4-difluoro-phenyl)-[1,2,4]oxadiazole-3-carbonyl]-amino}-piperidine-3-carboxylic acid (1-pyrimidin-2-yl-cyclopropyl)-amide] |
| 240 | N#Cc1ccc(-c2cc(C(=O)N[C@H]3CCN(CC4CC4)C[C@@H]3C(=O)NC3(c4ncccn4)CC3)no2)cc1 [Example 7.009, (3S,4S)-4-{[5-(4-Cyano-phenyl)-isoxazole-3-carbonyl]-amino}-1-cyclopropylmethyl-piperidine-3-carboxylic acid (1-pyrimidin-2-yl-cyclopropyl)-amide] |
| 78 | O=C(N[C@H]1CCN(CC2CC2)C[C@@H]1C(=O)NC1(c2ncccn2)CC1)c1ncc(-c2ccc(F)cc2F)o1 [Example 7.011, (3S,4S)-1-Cyclopropylmethyl-4-{[5-(2,4-difluoro-phenyl)-oxazole-2-carbonyl]-amino}-piperidine-3-carboxylic acid (1-pyrimidin-2-yl-cyclopropyl)-amide] |
| 356 | O=C(N[C@H]1CCN(CC2CC2)C[C@@H]1C(=O)NC1(c2ncccn2)CC1)c1cn(-c2c(F)cc(F)cc2F)nn1 [Example 7.012, (3S,4S)-1-Cyclopropylmethyl-4-{[1-(2,4,6-trifluoro-phenyl)-1H-[1,2,3]triazole-4-carbonyl]-amino}-piperidine-3-carboxylic acid (1-pyrimidin-2-yl-cyclopropyl)-amide] |
| 252 | O=C(N[C@H]1CCN(CC2CC2)C[C@@H]1C(=O)NC1(c2ncccn2)CC1)c1cc(-c2ccc(F)c(F)c2)on1 [Example 7.013, (3S,4S)-1-Cyclopropylmethyl-4-{[5-(3,4-difluoro-phenyl)-isoxazole-3-carbonyl]-amino}-piperidine-3-carboxylic acid (1-pyrimidin-2-yl-cyclopropyl)-amide] |
